Tests used:
[1] = Blood and brain concentrations in satellite animals of the MEST studies; format: in vivo, rat; settings: 1 and 3 mg/kg s.c. with ENK6 30 mg/kg i.p.
Procedure: Satellite animals (n=3/group) received the same drugs or combinations of drugs as the test groups, and were culled at the appropriate time after dosing. Blood and brain samples were taken for analysis of the drug concentrations in these compartments.
(§1) All doses were calculated as base. ENa9 and ENa13 were dosed via the subcutaneous (s.c.) route at 1 ml/kg in a 2% v/v DMSO/saline vehicle 30 minutes prior to test. ENa7 and ENa14 were dosed orally (p.o.) in a 1% w/v methylcellulose/water vehicle at 2 ml/kg, 60 minutes before test. Compound ENK6 was dosed with via the intraperitoneal (i.p.) route 60 minutes before the test or via the s.c. route 15 minutes before test. In both cases ENK6 was dissolved in saline.

Male CD rats = test: Rat MEST model (maximal electroshock seizure threshold); format: in vivo
Procedure: This work was conducted in compliance with the Home Office Guidance on the operation of the Animals (Scientific Procedures) Act 1986 and GlaxoSmithKline ethical standards. Male CD rats (100-145 g) were supplied by Charles River, UK. Animals were group housed (6 animal per cage) with free access to food (Standard rodent chow; Harlan, UK) and water under a 12 h light/dark cycle (lights on at 0700 h). A period of at least one week between arrival at GSK and the study was allowed in all cases.
Animals were administered a test compound at the appropriate dose, route and pre-treatment time and returned to their home cage. Testing occurred in a separate room from that used for housing. Testing involved determining the threshold for tonic hindlimb extensor seizures using a Hugo Sachs Electronik stimulator which delivers a constant current of 0.3 second duration, 50 Hz, sinewave form, fully adjustable between 1 and 300 mA. Stimuli were delivered via corneal electrodes (Stean T O, Atkins A R, Heidbreder C A, Quinn L P, Trail B K, Upton N. (2005) Br J. Pharmacol. 144(5):628-35). Seizure threshold was determined using the ‘up and down’ method of Kimball et al. (1957)(Kimball A W, Burnett W T Jr, Doherty D G. (1957) Radiat Res. 7(1):1-12). The first animal tested in each group was stimulated with a current that might be expected to be close to the threshold for induction of a seizure. If a tonic seizure was not induced, then then next animal in the group received a stimulus 5 mA higher. If a tonic seizure was induced, then the next animal received a stimulus 5 mA lower. This is repeated for all animals within the control (vehicle) group. In the case of groups treated with a sodium channel blocker steps of 10 to 30 mA were used.
as §1
Induction of seizure is measured as an all-or-nothing effect scored as either present (+) or absent (0) for each animal. The data for each treatment group were recorded as the number of +'s and 0's at each current level employed and this information was then used to calculate the CC50 value (current required for 50% of animals to show seizure behaviour)+standard error of the mean according to the method of Kimball et al. (1957). Drug effects were calculated as the % change in CC50. Significant differences between drug-treated animals and appropriate vehicle treated groups were assessed according to the methods of Litchfield and Wilcoxon (1949). The statistical significance of differences between sodium channel blocker alone or in combination with ENK6 was assessed using a Student's t test.

rats = test: FCA (Freunds Complete Adjuvant) model of inflammatory hypersensitivity to pain, weight bearing; format: in vivo, rat
Procedure: • Naïve weight bearing readings were taken. The hypersensitivity to pain was measured using the Rat incapacitance tester (Linton instruments). This instrument is serviced once a year and should be regularly calibrated • All rats then received an intraplantar injection of 100 ul of FCA (Freund's complete adjuvant) into the left hind paw. The FCA was sonicated for 15 minutes prior to use. • Approximately 23 hrs after administration of the FCA, pre-dose weight bearing readings were taken. All animals were then ranked and randomised for dosing according to their FCA window (predose difference in grams−naïve difference in grams). […] Celebrex 10 mg/kg p.o. (positive control) as appropriate according to ranking and randomisation. • Animals were assessed in the weight bearing apparatus 1 hour post dose. • The study was blind and randomised by FCA window using the Latin square method. • % reversals were calculated by using the naïve, pre-dose and post dose values as follows: % Reversal=[(Pre-dose−Post-dose)/(Pre-dose−Naïve)]×100 • Graphs and ED50 were calculated where appropriate using Prism4. • Statistical analysis was carried out using ANOVA followed by calculating the least square means using the statistical package Statistica 6.1 • From the dose response curves the ED20 was determined for the combination study Results • Naïve weight bearing readings were taken. The hypersensitivity to pain was measured using the Rat incapacitance tester (Linton instruments). This instrument is serviced once a year and should be regularly calibrated • All rats then received an intraplantar injection of 100 ul of FCA (Freund's complete adjuvant) into the left hind paw. The FCA was sonicated for 15 minutes prior to use. • Approximately 23 hrs after administration of the FCA, pre-dose weight bearing readings were taken. All animals were then ranked and randomised for dosing according to their FCA window (predose difference in grams−naïve difference in grams). […] See table 5 for details of the groups • Animals were assessed in the weight bearing apparatus 1 hour post dose. • The study was blind and randomised by FCA window using the Latin square method. • % reversals were calculated by using the naïve, pre-dose and post dose values as follows: % Reversal=[(Pre-dose−Post-dose)/(Pre-dose−Naïve)]×100 • Statistical analysis was carried out using ANOVA followed by calculating the least square means using the statistical package Statistica 6.1 • ED50 and ED20 values and graphs were calculated using prism5 • Naïve weight bearing readings were taken. The hypersensitivity to pain was measured using the Rat incapacitance tester (Linton instruments). This instrument is serviced once a year and should be regularly calibrated • All rats then received an intraplantar injection of 100 ul of FCA (Freund's complete adjuvant) into the left hind paw. The FCA was sonicated for 15 minutes prior to use. • Approximately 23 hrs after administration of the FCA, pre-dose weight bearing readings were taken. All animals were then ranked and randomised for dosing according to their FCA window (predose difference in grams−naïve difference in grams). […] Graphs and ED50 were calculated where appropriate using Prism5 • Statistical analysis was carried out using ANOVA followed by calculating the least square means using the statistical package Statistica 6.1 Results

[2] = 3 mg/kg s.c., 30 min before test, alone
[3] = FIG. 3, group marked by vertical arrow, ENK6 10 mg/kg sc 15 min ptt, Ena7 1 & 3 mg/kg po 60 min ptt
[4] = ED20 dose alone (ENa7 0.1 mg/kg p.o.; ENK6 0.08 mg/kg s.c.)

SMILES: CN1CC[C@]2(CC[C@H](c3ccc(OCc4ccccc4F)cc3)N2)C1=O.Cl [ENa13, (2R,5R)-2-(4-{[(2-Fluorophenyl)methyl]oxy}phenyl)-7-methyl-1,7-diazaspiro[4,4]nonan-6-one hydrochloride]
- blood or brain concentration in the presence of ENK6 versus alone [1]: No increase
- effect on seizure threshold (Male CD rats; [2]): robust and significant increase in seizure threshold

SMILES: Nc1nnc(-c2cccc(Cl)c2Cl)c(N)n1 [ENa7, 3,5-diamino-6-(2,3-dichlorophenyl)-1,2,4-triazine, reference compound]
- effect on seizure threshold (Male CD rats; 1 mg/kg p.o., 60 min before test, alone): little or no increase in seizure threshold
- CC50 value (Male CD rats; [3]): greater than 180 mA
- increase in CC50 (Male CD rats; [3]): > 780%
- effect on FCA induced hypersensitivity (rats; 0.1-3.0 mg/kg, alone, 1 hour post dose): dose related reversal of the FCA induced hypersensitivity
- effect on FCA induced hypersensitivity (rats; [4]): no significant effect on the FCA induced hypersensitivity

SMILES: Nc1nc(N)c(-c2cccc(Cl)c2Cl)c(CF)n1 [ENa15, R(−)-2,4-diamino-5-(2,3-dichlorophenyl)-6-fluoromethyl pyrimidine methanesulphonate]
- effect on seizure threshold (Male CD rats; 0.3 mg/kg p.o., 60 min before test, alone): no increase in seizure threshold
- increase in CC50(mA) (Male CD rats; 1 mg/kg p.o. in the presence of ENK6 30 mg/kg s.c.): 51%

SMILES: Cl.NC(=O)[C@@H]1CC[C@H](c2ccc(OCc3ccccc3F)cc2)N1 [ENa9, (5R)-5-(4-{[(2-fluorophenyl)methyl]oxy}phenyl)-L-prolinamide hydrochloride]
- blood or brain concentration in the presence of ENK6 versus alone [1]: No increase
- effect on seizure threshold (Male CD rats; [2]): small, but significant increase in seizure threshold

SMILES: COc1ccc(-n2nnnc2C(F)(F)F)cc1CN[C@H]1CCCN[C@H]1c1ccccc1.Cl.Cl [ENK6, [2-Methoxy-5-(5-trifluoromethyl-tetrazol-1-yl)-benzyl]-([2S,3S]-2-phenyl-piperidin-3-yl)-amine dihydrochloride]
- effect on seizure threshold (Male CD rats; 10 mg/kg s.c., 15 min before test, alone (first experiment)): no effect on seizure threshold
- effect on seizure threshold (Male CD rats; 30 mg/kg i.p., 60 min before test, alone): no effect on seizure threshold
- effect on seizure threshold (Male CD rats; 30 mg/kg s.c., 15 min before test, alone): no effect on seizure threshold
- effect on FCA induced hypersensitivity (rats; 0.1-3.0 mg/kg, alone, 1 hour post dose, dihydrochloride): dose related reversal of the FCA induced hypersensitivity
- effect on FCA induced hypersensitivity (rats; [4]): no significant effect on the FCA induced hypersensitivity
- ED20, reversal of FCA induced hypersensitivity (rats; s.c., alone (summary of results)): approx 0.08 mg/kg
